Source: US10370405B2, “C-3 novel triterpenone with C-28 amide derivatives as HIV inhibitors” (HETERO LABS LIMITED, priority 2016, dated 2019)
Like-named read-outs stand apart in the source and are kept apart here.

Legend:
HIV-1 strain 92HT599 = experiment: Antiviral activity: p24 estimation in MT2 cells infected with HIV-1; assay type: cell-based; settings: for IC50: Human immunodeficiency virus 1, MT2; for inhibition at 0.01 µM / inhibition at 0.1 µM / inhibition at 1 µM: Human immunodeficiency virus 1, MT2 cells, HIV-1 92HT599, p24, ~96 hours
Description: MT2 cells were infected with HIV-1 strain 92HT599 (10 TCID 50/30000 cells). The infected cells were plated at the concentration of ˜30 000 cells per well in 96 well plate. Test compound was added to the micro plate in defined format with the final concentration of DMSO (vehicle) is not more than 1%. Incubation was carried out in CO2 incubator for ˜96 hours for viral infection. At the end of incubation period an aliquot from each well was taken for p24 estimation. The quantitation of p24 is an index for antiviral activity of the compound. Percent inhibition was calculated with reference to control values (vehicle controls). P-24 estimation was carried out using Advance biosciences kit as per the procedure detailed by supplier.

[1] = Single dose oral pharmacokinetic study; assay type: in vivo; settings: mouse, plasma; Mice oral PK @30 mg/kg
Description: The test item was administered through oral route to animals (rat/mice) at 30 mg/kg dose in a suitable vehicle (10% Solutol+20% PEG) at 10 ml/kg dose volume. Blood samples (˜50 μL at each time point) were collected from retro-orbital plexus using K3 EDTA as anticoagulant in eppendorf tubes at defined time intervals 30 minutes, 1 hour, 2 hour, 4 hour, 8 hour, 24 hour & 48 hour under light ether anaesthesia. The samples were centrifuged at 3500×g to separate plasma and stored at −80° C. until analysis. Plasma […] for Mice were processed as per described in sample preparation.
Standard solutions of the test compound 1 mg/mL solutions were prepared in DMSO and further dilutions were made in methanol. The calibration curve samples for LCMSMS analysis were prepared by spiking 25 μl of Mice plasma with 2.5 μl and of the appropriate working standard solution to obtain final concentrations 0.078, 0.156, 0.312, 0.625, 1.25, 2.5, 5, 10, 20 & 40 µg/ml. To the test compound plasma extraction was carried out using Acetonitrile precipitation. After reconstitution with solvent (50% Acetonitrile in Buffer) samples were analyzed by LCMSMS to get the concentrations to calculate PK Parameters.

[2] = 0% serum, read-out: Antiviral activity IC50 (nM) 0%
[3] = read-out: Antiviral activity IC50 (nM) 40% serum

Description for in vitro: On day 1 calculate the number of cells required for the assay and seed 3×10^4 cells in 200 μl per well. Weigh the compound and dissolve it in DMSO to get 10 mM stock which is further diluted to 3 mM and 1 mM. The drugs from these stocks were added to plate to get final concentration of 100 μM, 30 μM and 10 μM. […] Incubate for 4 days in 5% CO2 incubator at 37° C. On day 4, 100 μl of medium was removed from each well without disturbing the cells. Add 10 μl of MTT reagent and incubate for 4 hours at 5% CO2 incubator at 37° C. for formation of crystals. Add 200 μl of 0.1N acidic isopropanol to dissolve the crystals and read the plate at 590 nm.

| SMILES | IC50 (HIV-1 strain 92HT599; [2]) | IC50 (HIV-1 strain 92HT599; [3]) | inhibition at 0.01 µM (HIV-1 strain 92HT599) | inhibition at 0.1 µM (HIV-1 strain 92HT599) | inhibition at 1 µM (HIV-1 strain 92HT599) | AUC(0-t) [1] | Cmax [1] | viability at 4 days, 10 μM (in vitro) | viability at 4 days, 30 μM (in vitro) | viability at 4 days, 100 μM (in vitro) |
| --- | --- | --- | --- | --- | --- | --- | --- | --- | --- | --- |
| CC(C)C1=C2[C@H]3CC[C@@H]4[C@@]5(C)CC[C@H](OC(=O)[C@H]6C[C@@H](C(=O)O)C6(C)C)C(C)(C)[C@@H]5CC[C@@]4(C)[C@]3(C)CC[C@@]2(C(=O)NC(C)(C)c2ncc(-c3ccccc3)[nH]2)CC1=O [Example 8, (1R,3S)-3-((((3aR,5aR,5bR,7aR,9S,11aR,11bR,13aS)-1-isopropyl-5a,5b,8,8,11a-pentamethyl-2-oxo-3a-((2-(5-phenyl-1H-imidazol-2-yl)propan-2-yl)carbamoyl)-3,3a,4,5,5a,5b,6,7,7a,8,9,10,11,11a,11b,12,13,13a-octadecahydro-2H-cyclopenta[a]chrysen-9-yl)oxy)carbonyl)-2,2-dimethylcyclobutane-1-carboxylic acid] | 3.7 nM | 14.2 nM | 100% | 100% | 100% | 265 µg·h/mL | 15200 ng/mL | 29% | 5% | 2% |
| CC(C)C1=C2[C@H]3CC[C@@H]4[C@@]5(C)CC[C@H](OC(=O)[C@H]6C[C@@H](C(=O)O)C6(C)C)C(C)(C)[C@@H]5CC[C@@]4(C)[C@]3(C)CC[C@@]2(C(=O)N2CCC[C@H]2C(C)(C)O)CC1=O [Example 9, (1R,3S)-3-((((3aR,5aR,5bR,7aR,9S,11aR,11bR,13aS)-3a-((S)-2-(2-hydroxypropan-2-yl)pyrrolidine-1-carbonyl)-1-isopropyl-5a,5b,8,8,11a-pentamethyl-2-oxo-3,3a,4,5,5a,5b,6,7,7a,8,9,10,11,11a,11b,12,13,13a-octadecahydro-2H-cyclopenta[a]chrysen-9-yl)oxy)carbonyl)-2,2-dimethylcyclobutane-1-carboxylic acid] | 7.44 nM | 342 nM | 100% | 100% | 100% | 107 µg·h/mL | 10900 ng/mL | 40% | 9% | 8% |
| CC(C)C1=C2[C@H]3CC[C@@H]4[C@@]5(C)CC[C@H](OC(=O)[C@H]6C[C@@H](C(=O)O)C6(C)C)C(C)(C)[C@@H]5CC[C@@]4(C)[C@]3(C)CC[C@@]2(C(=O)NC(C)(C)c2ncc(-c3ccc(Cl)cc3)[nH]2)CC1=O [Example 11, (1R,3S)-3-((((3aR,5aR,5bR,7aR,9S,11aR,11bR,13aS)-3a-((2-(5-(4-chlorophenyl)-1H-imidazol-2-yl)propan-2-yl)carbamoyl)-1-isopropyl-5a,5b,8,8,11a-pentamethyl-2-oxo-3,3a,4,5,5a,5b,6,7,7a,8,9,10,11,11a,11b,12,13,13a-octadecahydro-2H-cyclopenta[a]chrysen-9-yl)oxy)carbonyl)-2,2-dimethylcyclobutane-1-carboxylic acid] | 2.93 nM | 118 nM | 92% | 99% | 99% | 143 µg·h/mL | 10000 ng/mL | 48% | 3% | 4% |
| CC(C)C1=C2[C@H]3CC[C@@H]4[C@@]5(C)CC[C@H](OC(=O)[C@H]6C[C@@H](C(=O)O)C6(C)C)C(C)(C)[C@@H]5CC[C@@]4(C)[C@]3(C)CC[C@@]2(C(=O)NC(C)(C)CN2CCCC2)CC1=O [Example 12, (1R,3S)-3-((((3aR,5aR,5bR,7aR,9S,11aR,11bR,13aS)-1-isopropyl-5a,5b,8,8,11a-pentamethyl-3a-((2-methyl-1-(pyrrolidin-1-yl)propan-2-yl)carbamoyl)-2-oxo-3,3a,4,5,5a,5b,6,7,7a,8,9,10,11,11a,11b,12,13,13a-octadecahydro-2H-cyclopenta[a]chrysen-9-yl)oxy)carbonyl)-2,2-dimethlcyclobutane-1-carboxylic acid] | 3.71 nM | 164 nM | 9% | 95% | 100% | 19 µg·h/mL | 5100 ng/mL | 100% | 100% | 96% |
| CC(C)C1=C2[C@H]3CC[C@@H]4[C@@]5(C)CC[C@H](OC(=O)[C@H]6C[C@@H](C(=O)O)C6(C)C)C(C)(C)[C@@H]5CC[C@@]4(C)[C@]3(C)CC[C@@]2(C(=O)N2CCC[C@H]2CN2CCCC2)CC1=O [Example 13, (1R,3S)-3-((((3aR,5aR,5bR,7aR,9S,11aR,1 bR,13aS)-1-isopropyl-5a,5b,8,8,11a-pentamethyl-2-oxo-3a-((S)-2-(pyrrolidin-1-ylmethyl)pyrrolidine-1-carbonyl)-3,3a,4,5,5a,5b,6,7,7a,8,9,10,11,11a,11b,12,13,13a-octadecahydro-2H-cyclopenta[a]chrysen-9-yl)oxy)carbonyl)-2,2-dimethylcyclobutane-1-carboxylic acid] | 0.73 nM | 17.1 nM | 96% | 100% | 100% | 320 µg·h/mL | 17000 ng/mL | 69% | 26% | 28% |
| CC(C)C1=C2[C@H]3CC[C@@H]4[C@@]5(C)CC[C@H](OC(=O)[C@H]6C[C@@H](C(=O)O)C6(C)C)C(C)(C)[C@@H]5CC[C@@]4(C)[C@]3(C)CC[C@@]2(C(=O)N(CCN(C)C)Cc2ccc(Cl)cc2)CC1=O [Example 14, (1R,3S)-3-((((3aR,5aR,5bR,7aR,9S,11aR,11bR,13aS)-3a-((4-chlorobenzyl)(2-(dimethylamino)ethyl)carbamoyl)-1-isopropyl-5a,5b,8,8,11a-pentamethyl-2-oxo-3,3a,4,5,5a,5b,6,7,7a,8,9,10,11,11a,11b,12,13,13a-octadecahydro-2H-cyclopenta[a]chrysen-9-yl)oxy)carbonyl)-2,2-dimethylcyclobutane-1-carboxylic acid] | 1.72 nM | 9.83 nM | 100% | 100% | 100% | 166 µg·h/mL | 9640 ng/mL | 91% | 12% | 12% |
| CC(C)C1=C2[C@H]3CC[C@@H]4[C@@]5(C)CC[C@H](OC(=O)[C@H]6C[C@@H](C(=O)O)C6(C)C)C(C)(C)[C@@H]5CC[C@@]4(C)[C@]3(C)CC[C@@]2(C(=O)NC(C)(C)CO)CC1=O [Example 15, (1R,3S)-3-((((3aR,5aR,5bR,7aR,9S,11aR,11bR,13aS)-3a-((1-hydroxy-2-methylpropan-2-yl)carbamoyl)-1-isopropyl-5a,5b,8,8,11a-pentamethyl-2-oxo-3,3a,4,5,5a,5b,6,7,7a,8,9,10,11,11a,11b,12,13,13a-octadecahydro-2H-cyclopenta[a]chrysen-9-yl)oxy)carbonyl)-2,2-dimethylcyclobutane-1-carboxylic acid] | 2.84 nM | 415 nM | 97% | 100% | 100% | 88.7 µg·h/mL | 9080 ng/mL | 70% | 22% | 6% |
